According to patent US20260055079A1, “PHTHALAZINONE COMPOUNDS AS PARP7 INHIBITORS” (AZKARRA THERAPEUTICS, INC., priority 2022, published 2026):
Like-named read-outs stand apart in the source and are kept apart here.

Assays:
[1] = target: His-GST-PARP7 (Homo sapiens (Human), UniProt Q7Z3E1); assay: PARP7 biochemical assay; conditions: read-out: PARP7 IC50
[2] = tested on: NCI-H1373 (human lung adenocarcinoma) cells; assay: Cell proliferation assay (CellTiter-Glo), NCI-H1373; assay type: cell-based; conditions: Homo sapiens, NCI-H1373, 144 h, read-out: NCI-H1373 GI50

His-GST-PARP7, sequence (Q7Z3E1 whole entry): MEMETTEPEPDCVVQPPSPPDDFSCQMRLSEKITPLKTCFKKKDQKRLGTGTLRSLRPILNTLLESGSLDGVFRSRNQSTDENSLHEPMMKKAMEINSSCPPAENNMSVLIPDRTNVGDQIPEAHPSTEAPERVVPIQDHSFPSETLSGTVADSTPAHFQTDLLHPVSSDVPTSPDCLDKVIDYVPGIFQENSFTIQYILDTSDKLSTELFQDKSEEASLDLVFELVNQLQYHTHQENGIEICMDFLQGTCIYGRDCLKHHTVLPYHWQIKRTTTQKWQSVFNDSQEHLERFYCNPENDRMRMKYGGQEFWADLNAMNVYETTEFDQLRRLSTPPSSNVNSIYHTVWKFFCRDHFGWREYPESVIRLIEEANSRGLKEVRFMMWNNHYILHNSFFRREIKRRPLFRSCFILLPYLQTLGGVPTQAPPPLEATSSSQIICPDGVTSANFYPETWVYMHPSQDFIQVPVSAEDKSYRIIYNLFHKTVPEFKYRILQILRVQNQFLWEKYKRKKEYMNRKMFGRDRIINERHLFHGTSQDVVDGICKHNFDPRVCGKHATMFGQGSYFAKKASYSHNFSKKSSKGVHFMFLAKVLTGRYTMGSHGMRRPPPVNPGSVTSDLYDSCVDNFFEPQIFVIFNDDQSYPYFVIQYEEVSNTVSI

Row | IC50 [1] [nM] | GI50 ([2]; 6 days, CellTiter-Glo) [nM] | Compound | GI50 [2] [nM]
1 | < 50 | 1000 to 5000 | CC#Cc1ccc2c(=O)[nH]nc(Cc3ccc(F)c(C(=O)N4C[C@H]5C[C@@H]4CN5c4ccc(C#N)cn4)c3)c2c1 [Example 66, 6-((1R,4R)-5-(2-Fluoro-5-((4-oxo-7-(prop-1-ynyl)-3,4-dihydrophthalazin-1-yl)methyl)benzoyl)-2,5-diazabicyclo[2.2.1]heptan-2-yl)nicotinonitrile] | 
2 | < 50 | 1000 to 5000 | CC#Cc1ccc2c(=O)[nH]nc(Cc3ccc(F)c(C(=O)N4CCN(c5ccc(C#N)cn5)C(=O)C4(C)C)c3)c2c1 [Example 71, 6-(4-(2-Fluoro-5-((4-oxo-7-(prop-1-yn-1-yl)-3,4-dihydrophthalazin-1-yl)methyl)benzoyl)-3,3-dimethyl-2-oxopiperazin-1-yl)nicotinonitrile] | 
3 | 50 to 100 | 1000 to 5000 | CC#Cc1ccc2c(=O)[nH]nc(Cc3ccc(F)c(C(=O)N4CCC(F)(c5ccc(C#N)cn5)CC4)c3)c2c1 [Example 67, 6-(4-Fluoro-1-(2-fluoro-5-((4-oxo-7-(prop-1-yn-1-yl)-3,4-dihydrophthalazin-1-yl)methyl)benzoyl)piperidin-4-yl)nicotinonitrile] | 
4 | < 50 | 100 to 1000 | CC#Cc1ccc2c(=O)[nH]nc(C(C)OCCC(=O)N3CCN(c4ncc(C(F)(F)F)cn4)CC3)c2c1 (stereo not shown) [Example 192, 4-(1-(3-Oxo-3-(4-(5-(trifluoromethyl)pyrimidin-2-yl)piperazin-1-yl)propoxy)ethyl)-6-(prop-1-ynyl)phthalazin-1(2H)-one] | 
5 | 100 to 500 | 1000 to 5000 | N#Cc1ccc(N2CCN(C(=O)c3cc(Oc4n[nH]c(=O)c5ccccc45)ccc3F)CC2)nc1 [Example 190, 6-(4-(2-fluoro-5-((4-oxo-3,4-dihydrophthalazin-1-yl)oxy)benzoyl)piperazin-1-yl)nicotinonitrile] | 
6 | < 50 | 100 to 1000 | CC#CCOc1ccc2c(=O)[nH]nc(Cc3ccc(F)c(C(=O)N4CCN(c5ccc(C#N)cn5)CC4)c3)c2c1 [Example 19, 6-(4-(5-((7-(But-2-ynyloxy)-4-oxo-3,4-dihydrophthalazin-1-yl)methyl)-2-fluorobenzoyl)piperazin-1-yl)nicotinonitrile] | 
7 | 500 to 2000 | 1000 to 5000 | CC#Cc1ccc2c(=O)[nH]nc(Cc3ccc(F)c(C(=O)N(C)C4CN(c5ccc(C#N)cn5)C4)c3)c2c1 [Example 201, N-(1-(5-Cyanopyridin-2-yl)azetidin-3-yl)-2-fluoro-N-methyl-5-((4-oxo-7-(prop-1-yn-1-yl)-3,4-dihydrophthalazin-1-yl)methyl)benzamide] | 
8 | < 50 | 1000 to 5000 | CC#Cc1ccc2c(=O)[nH]nc(Cc3ccc(F)c(C(=O)N4CC5(C4)CN(c4ccc(C#N)cn4)C5)c3)c2c1 [Example 60, 6-(6-(2-Fluoro-5-((4-oxo-7-(prop-1-yn-1-yl)-3,4-dihydrophthalazin-1-yl)methyl)benzoyl)-2,6-diazaspiro[3.3]heptan-2-yl)nicotinonitrile] | 

Row | Compound | IC50 [1] [nM] | GI50 ([2]; 6 days, CellTiter-Glo) [nM] | GI50 [2] [nM]
9 | O=C(c1cc(Cc2n[nH]c(=O)c3ccc(OC4CCC4)cc23)ccc1Cl)N1CCN(c2ncc(C(F)(F)F)cn2)CC1 [Example 169, 4-(4-chloro-3-(4-(5-(trifluoromethyl)pyrimidin-2-yl)piperazine-1-carbonyl)benzyl)-6-cyclobutoxyphthalazin-1(2H)-one] | < 50 | < 100 | 
10 | N#Cc1ccc(N2CCN(C(=O)c3cc(Cc4n[nH]c(=O)c5ccc(OC(F)F)cc45)ccc3F)CC2)nc1 [Example 21, 6-(4-(5-((7-(Difluoromethoxy)-4-oxo-3,4-dihydrophthalazin-1-yl)methyl)-2-fluorobenzoyl)piperazin-1-yl)nicotinonitrile] | < 50 |  | 100 to 1000
11 | O=C(c1cc(Cc2n[nH]c(=O)c3ccc(OC4CCC4)cc23)ccc1F)N1CCN(C(=O)C2CC2)CC(F)(F)C1 [Example 127, 6-Cyclobutoxy-4-(3-(4-(cyclopropanecarbonyl)-6,6-difluoro-1,4-diazepane-1-carbonyl)-4-fluorobenzyl)phthalazin-1(2H)-one] | < 50 | 1000 to 5000 | 
